Experiments:
Type in all cases: cell-based, Saccharomyces cerevisiae
[1] = system: transformed budding yeast AH22-RsOS1; test: Antifungal compound sensitivity test, transformed budding yeast AH22-RsOS1 (Example 19); settings: 30° C. 29.8 hours, relative value in percentage
Method: The transformed budding yeast AH22-RsOS1 prepared in Example 18 was cultured while shaking at 30° C. for 18 hours in a Glu-Leu medium. As a control, the AH22 strain was similarly cultured while shaking at 30° C. for 18 hours in a Glu medium. The absorbance at 600 nm of each grown transformed budding yeast in a cell suspension was measured, and cell suspension diluted with sterilized distilled water to the absorbance of 0.1 was prepared. Further, a cell suspension in which the aforementioned cell suspension of the transformed budding yeast AH22-RsOS1 was diluted 50-fold with a Glu-Leu medium, and a cell suspension in which the aforementioned cell suspension of the AH22 strain was diluted 50-fold with a Glu medium were prepared.
A solution in which each of Compounds (1) to (5) was dissolved in dimethylsulfoxide (DMSO) to the concentration of 600 ppm, and a solution in which Compounds (6) and (7) was dissolved in dimethylsulfoxide (DMSO) to the concentration of 60 ppm were prepared, and two microplates were prepared in which each 1.0 μL per well of the Compound solution and DMSO as a control were dispensed. In one microplate among them, each 100 μL of cell suspensions of the transformed budding yeast AH22-RsOS1 which had been prepared by dilution as described above was dispensed, and cultured by allowing to stand at 30° C. for 29.8 hours. In another microplate, each 100 μL of cell suspensions of the control yeast AH22 strain which had been prepared by dilution as described above was dispensed, and cultured by allowing to stand at 30° C. for 24.8 hours. After culturing, the absorbance at 600 nm of each well was measured with a microplate reader.
(§1) A degree of growth of the transformed budding yeast is expressed as a relative value in percentage, letting the absorbance at 600 nm at the concentration of the Compound of 0 ppm to be 100. It was confirmed that an inhibiting degree of growth of the transformed budding yeast TM182-RsOS1 by each test substance was grater than an inhibiting degree of growth of the transformed budding yeast AH22-RsOS1 by each test substance, and the transformed budding yeast TM182-RsOS1 was a transformed cell with the enhanced sensitivity to an antifungal compound as compared with the transformed budding yeast AH22-RsOS1.

[2] = system: transformed budding yeast TM182-RsOS1; test: Antifungal compound sensitivity test of transformed budding yeast TM182-RsOS1 (Example 19); settings: for Degree of growth of budding yeast TM182-RsOS1 Gal-Ura-Leu medium: control medium, 30° C. 42.5 hours; for Degree of growth of budding yeast TM182-RsOS1 Gul-Ura-Leu medium: 30° C. 26.8 hours
Method: Similarly, the transformed budding yeast TM182-RsOS1 prepared in Example 18 was cultured at 30° C. for 18 hours in a Glu-Ura-Leu medium. The absorbance at 600 nm of the grown transformed budding yeast in a cell suspension was measured, and a cell suspension diluted with sterilized distilled water to the absorbance of 0.1 was prepared. Further, a cell suspension in which the transformed budding yeast TM182-RsOS1 was diluted 50-fold with a Glu-Ura-Leu medium. As a control, the transformed budding yeast TM182-RsOS1 was cultured at 30° C. for 18 hours in a Gal-Ura-Leu medium. The absorbance at 600 nm of the grown transformed budding yeast in a cell suspension was measured, and a cell suspension diluted with sterilized distilled water to the absorbance of 0.1 was prepared. Further, a cell suspension in which the transformed budding yeast TM182-RsOS1 was diluted 50-fold with a Gal-Ura-Leu medium.
A solution in which each of Compounds (1) to (5) was dissolved in dimethylsulfoxide (DMSO) to the concentration of 600 ppm, and a solution in which each of Compounds (6) and (7) was dissolved in dimethylsulfoxide (DMSO) to the concentration of 60 ppm were prepared, and two microplates were prepared in which each 2.0 μL per well of the Compound-DMSO solution and DMSO as a control were dispensed into 2 wells. In one microplate among them, each 100 μL of cell suspensions of the transformed budding yeast TM182-RsOS1 which had been prepared by dilution with a Glu-Ura-Leu medium as described above was dispensed, and cultured by allowing to stand at 30° C. for 26.8 hours. In another microplate, as described above, as a control, each 100 μL of cell suspensions of the transformed budding yeast TM182-RsOS1 which had been prepared by dilution with a Gal-Ura-Leu medium was dispensed, and cultured at 30° C. for 42.5 hours. After culturing the absorbance at 600 nm of each well was measured with a microplate reader.
as §1

[3] = system: transformed budding yeast TM182-BcOS1-I365S; test: Antifungal compound sensitivity test of transformed budding yeast TM182-BcOS1-I365S (Example 6); settings: final concentration 6 ppm, 30° C. 67 hours; for Degree of growth of budding yeast (%) TM182-BcOS1-I365S Gal-Ura-Leu medium: control medium

Row | SMILES | Degree of growth of budding yeast AH22-RsOS1 Glu-Leu medium ([1]; final concentration 6.0 ppm) [%] | Degree of growth of budding yeast TM182-RsOS1 Gal-Ura-Leu medium ([2]; final concentration 6.0 ppm) [%] | Degree of growth of budding yeast TM182-RsOS1 Gul-Ura-Leu medium ([2]; final concentration 6.0 ppm) [%] | Degree of growth of budding yeast (%) TM182-BcOS1-I365S Gal-Ura-Leu medium [3] [%] | Degree of growth of budding yeast (%) TM182-BcOS1-I365S Glu-Ura-Leu medium [3] [%] | Degree of growth of budding yeast AH22-RsOS1 Glu-Leu medium ([1]; final concentration 0.6 ppm) [%] | Degree of growth of budding yeast TM182-RsOS1 Gal-Ura-Leu medium ([2]; final concentration 0.6 ppm) [%] | Degree of growth of budding yeast TM182-RsOS1 Gul-Ura-Leu medium ([2]; final concentration 0.6 ppm) [%]
1 | CC12CC1(C)C(=O)N(c1cc(Cl)cc(Cl)c1)C2=O (stereo not drawn) [Compound (1), Procymidone] | 103 | 108 | 15 | 99 | 9 |  |  | 
2 | O=[N+]([O-])c1c(Cl)c(Cl)c(Cl)c(Cl)c1Cl [Compound (4), Quintozene] | 89 | 88 | 17 |  |  |  |  | 
3 | CC(C)NC(=O)N1CC(=O)N(c2cc(Cl)cc(Cl)c2)C1=O [Compound (2), Iprodione] | 101 | 96 | 11 | 88 | 11 |  |  | 
4 | COP(=S)(OC)Oc1c(Cl)cc(C)cc1Cl [Compound (5), Tolclofos-methyl] | 85 | 101 | 9 |  |  |  |  | 
5 | N#Cc1c[nH]cc1-c1cccc2c1OC(F)(F)O2 [Compound (6), Fludioxonil] |  |  |  |  |  | 79 | 100 | 12
6 | N#Cc1c[nH]cc1-c1cccc(Cl)c1Cl [Compound (7), Fenpiclonil] |  |  |  |  |  | 101 | 99 | 31
7 | C=CC1(C)OC(=O)N(c2cc(Cl)cc(Cl)c2)C1=O (stereo not drawn) [Compound (3), Vinclozolin] | 101 | 101 | 27 | 92 | 9 |  |  | 
